Counter-ions that a name gives are not always drawn. Like-named read-outs stand apart in the source and are kept apart here.
How the values were obtained:
[1] = D'Amour-Smith test for analgesia in rats; type: in vivo
Description: In tests as in animals as analgesics and as antagonists of strong analgesics, the racemic, dextro, and levo forms of trans 1,2,3,4,5,6-hexahydro-3-(3-methyl-2-butenyl)-6-ethyl-11-methyl-8-hydroxy-2,6-methano-3-benzazocine described in Example 7D above gave results substantially differing from those of the corresponding cis forms and of the related compounds of this invention. Thus, in the analgesic antagonist test versus a 60 mg/kg. dose of meperidine, the maximum degree of antagonism which could be obtained for these three trans forms was: for the racemic trans form, 50 percent antagonism at 0.1 mg/kg.; for the dextro trans form, 30 percent antagonism at 1.25 mg./kg.; and for the levo trans form, 22 percent antagonism at 0.1 mg./kg.

[2] = tested on: analgesic effect of meperidine hydrochloride; experiment: Antagonism of meperidine analgesia, modified D'Amour-Smith test; conditions: for maximum degree of antagonism: versus 60 mg/kg. meperidine; for dosage of antagonist which reduced the analgesic effect of meperidine by approximately 50 per cent: subcutaneous, rats, lactic acid acid-addition salt, versus 60 mg./kg. meperidine hydrochloride; for ED50: Rattus norvegicus, sc, read-out: dosage of antagonist which reduced the analgesic effect of meperidine by approximately 50 per cent
[3] = tested on: analgesic effect of morphine sulfate; experiment: Antagonism of morphine analgesia, modified D'Amour-Smith test; conditions: for dosage of antagonist which reduced the analgesic effect of morphine by approximately 50 per cent: subcutaneous, rats, lactic acid acid-addition salt, versus 15 mg./kg. morphine sulfate; for ED50: Rattus norvegicus, sc, read-out: dosage of antagonist which reduced the analgesic effect of morphine by approximately 50 per cent
[4] = Solubility, pH of solution and precipitation on pH adjustment or dilution; type: physicochemical; conditions: for pH at which a precipitate formed: 1 percent solution, addition of N/10 sodium hydroxide
Description: A. A mixture of 8.7 g. of racemic cis 1,2,3,4,5,6-hexahydro-6,11-dimethyl-8-hydroxy-2,6-methano-3-benzazocine (which is also known as racemic cis 2'-hydroxy-5,9-dimethyl-6,7-benzomorphan), 6.0 g of 1-bromo-3-methyl-2-butene, 5.0 g. of sodium bicarbonate, and 125 ml. of N,N-dimethylformamide was stirred and refluxed for approximately 41/2 hours. The reaction mixture was then filtered, and the solid on the filter was washed with ethanol. The filtrate and the wash liquor were combined, concentrated under reduced pressure, and then extracted with chloroform. The chloroform extract was concentrated under reduced pressure to yield a syrup which weighed 15.8 g. This syrup was dissolved in 120 ml. of diethyl ether and the resulting solution was filtered to remove approximately one-half gram of a brown amorphous solid. The filtrate was extracted with a mixture of 5 ml. of concentrated hydrochloric acid and 20 ml. of water. To the extract there was added 5 ml. of concentrated ammonium hydroxide solution and ice. A pale tan syrup separated from solution and after stirring, this syrup solidified. The resulting pale tan solid was collected and dried; it weighed 10.6 g. After two recrystallizations from a mixture of methyl alcohol and water, with charcoaling, this solid weighed 8.2 g. and melted at 145°-147° C. The product thus obtained was racemic cis 1,2,3,4,5,6-hexahydro-3-(3-methyl-2-butenyl)-6,11-dimethyl-8-hydroxy-2,6-methano-3-benzazocine (Formula II: Y = --CH2 --CH=C(CH3)2; R^3 = --H), having the molecular formula C19 H27 NO. This product was soluble in a mixture of 0.35 ml. of N/2 hydrochloric acid and 0.15 ml. of water to the extent of 10 percent, the pH of the 1 percent solution being 2.80; and when the pH of the 1 percent solution was gradually raised by addition of N/10 sodium hydroxide solution, a precipitate formed at pH 5.4. When the base was converted to the hydrochloride and was then regenerated from this salt it melted at 151°-153° C. The hydrochloride of this base melted at 245°-247° C. (dec.). and the cyclohexylsulfamate of this base melted at 163°-166° C. The base formed a grayish-yellowtannate.
The racemic trans product was converted to its hydrobromide, having the molecular formula C19 H27 NO·HBr, which was obtained as white needles which melted at 240°-241° C.
The dextro trans product was converted to its hydrochloride, having the molecular formula C19 H27 NO·HCl, which was obtained as white crystals which melted at 254°-255° C.
The levo trans product was converted to its hydrochloride, having the molecular formula C19 H27 NO·HCl, which was obtained as white crystals which melted at 254°-255° C. (dec.); this hydrochloride was soluble in water to the extent of 5 percent, the pH of a 1 percent aqueous solution being 5.7, a precipitate being formed when the 1 percent aqueous solution was adjusted to 7.0 by addition of N/10 sodium hydroxide solution.
A. A mixture of 9.25 g. of racemic cis 1,2,3,4,5,6-hexahydro-6-ethyl-11-methyl-8-hydroxy-2,6-methano-3-benzazocine, 6.0 g. of 1-bromo-3-methyl-2-butene, 125 ml. of N,N-dimethylformamide, and 5.0 g. of sodium bicarbonate was stirred and refluxed for approximately 41/2 hours. The reaction mixture was then filtered, and the solid collected on the filter was washed with ethanol. The filtrate and the wash liquor were combined and concentrated under reduced pressure. To the resulting residue there was added 50 ml. of diethyl ether, and the mixture was filtered. Approximately 0.6 g. of solid was collected on the filter, and 8.2 g. of brown solid separated from the filtrate and was collected by filtration. These two crops of solid (8.8 g.) were combined, 25 ml. of methanol was added, and the mixture was boiled. Only a small portion of the solid dissolved. This mixture was mixed with 25 ml. of water and chilled. The mixture was filtered to collect 8.3 g. of pale tan solid which melted at 156°-158° C. […]

[5] = Clinical analgesia in human subjects; type: in vivo; conditions: for dose approximately equivalent to 10 mg. of morphine sulfate as an analgesic: parenterally in humans; for analgesia in human subjects: parenterally
Description: In human subjects, however, the compounds of Formulas I and II are valuable and effective agents for producing analgesia when administered in the general range of about 10 to 500 mg. per 70 kg. of subject weight, the dosage depending of course on the particular compound, the mode of administration, and the like. The following clinical results which were obtained in human subjects are illustrative. For oral administration the free base was used, and for parenteral (usually intramuscular) administration an aqueous solution of the lactate salt was used; the dosages are expressed in each instance in terms of milligrams of base per 70 kilograms of body weight of the human subject.

[6] = ethanol, organic solvent or mixture, read-out: solubility in ethanol
[7] = water, read-out: solubility in water

Compound: CC[C@]12CCN(CC=C(C)C)[C@@H](Cc3ccc(O)cc31)C2C (relative stereo) [7D (levo trans), trans 1,2,3,4,5,6-hexahydro-3-(3-methyl-2-butenyl)-6-ethyl-11-methyl-8-hydroxy-2,6-methano-3-benzazocine]
- ED50 in D'Amour-Smith test for analgesia [1]: 0.94 mg/kg
- maximum degree of antagonism ([2]; at 0.1 mg/kg.): 22%

Compound: CC(C)=CCN1CC[C@]2(C)c3cc(O)ccc3C[C@H]1C2C (relative stereo) [4D (levo), cis 1,2,3,4,5,6-hexahydro-3-(3-methyl-2-butenyl)-6,11-dimethyl-8-hydroxy-2,6-methano-3-benzazocine]
- dosage of antagonist which reduced the analgesic effect of meperidine by approximately 50 per cent [2]: 1.05 mg/kg
- dosage of antagonist which reduced the analgesic effect of morphine by approximately 50 per cent [3]: 4.3 mg/kg

Compound: C=C(C)CN1CC[C@@]2(C)c3cc(O)ccc3C[C@@H]1[C@@H]2C (relative stereo) [8A hydrochloride, 1,2,3,4,5,6-Hexahydro-3-(2-methyl-2-propenyl)-6,11-dimethyl-8-hydroxy-2,6-methano-3-benzazocine]
- solubility [4, 6]: < 10000 µg/mL
- solubility [4, 7]: < 2500 µg/mL

Compound: CC[C@]12CCN(CC=C(C)C)[C@H](Cc3ccc(O)cc31)[C@@H]2C (relative stereo) [Example 7A, racemic cis 1,2,3,4,5,6-hexahydro-3-(3-methyl-2-butenyl)-6-ethyl-11-methyl-8-hydroxy-2,6-methano-3-benzazocine]
- solubility ([4]; dilute hydrochloric acid, mixture of 0.34 ml. of N/2 hydrochloric acid and 19.66 ml. of water, read-out: solubility in dilute hydrochloric acid): < 2500 µg/mL
- solubility [4, 6]: < 10000 µg/mL
- ED50 [2]: 10.9 mg/kg
- ED50 [3]: 11.6 mg/kg
- dose approximately equivalent to 10 mg. of morphine sulfate as an analgesic [5]: ~40 mg
- analgesia in human subjects ([5]; 10 mg./70 kg. to 80 mg./70 kg.): effective and satisfactory analgesia

Compound: CC(C)=CCN1CC[C@@]2(C)c3cc(O)ccc3C[C@H]1C2C (relative stereo) [4E (dextro) hydrochloride, trans 1,2,3,4,5,6-hexahydro-3-(3-methyl-2-butenyl)-6,11-dimethyl-8-hydroxy-2,6-methano-3-benzazocine]
- pH of a 1 percent aqueous solution [4]: 5.6
- pH at which a precipitate formed [4]: > 6.9
- solubility in water ([4]; water): 5%

Compound: C=C(C)CN1CC[C@@]2(C)c3cc(O)ccc3C[C@@H]1[C@@H]2C (relative stereo) [Example 8A, 1,2,3,4,5,6-Hexahydro-3-(2-methyl-2-propenyl)-6,11-dimethyl-8-hydroxy-2,6-methano-3-benzazocine]
- ED50 [2]: 0.094 mg/kg
- ED50 [3]: 0.19 mg/kg

Compound: CC[C@]12CCN(CC=C(C)C)[C@H](Cc3ccc(O)cc31)[C@H]2C (relative stereo) [7D (racemic trans), trans 1,2,3,4,5,6-hexahydro-3-(3-methyl-2-butenyl)-6-ethyl-11-methyl-8-hydroxy-2,6-methano-3-benzazocine]
- ED50 ([1]; Rattus norvegicus): 1.4 mg/kg
- maximum degree of antagonism ([2]; at 0.1 mg/kg.): 50%

Compound: CC(C)=CCN1CC[C@@]2(C)c3cc(O)ccc3C[C@H]1C2C (relative stereo) [4E (levo) hydrochloride, trans 1,2,3,4,5,6-hexahydro-3-(3-methyl-2-butenyl)-6,11-dimethyl-8-hydroxy-2,6-methano-3-benzazocine]
- pH of a 1 percent aqueous solution [4]: 5.7
- pH at which a precipitate formed [4]: 7.0
- solubility in water ([4]; water): 5%

Compound: CC(C)=CCN1CC[C@@]2(C)c3cc(O)ccc3C[C@@H]1[C@H]2C (relative stereo) [4E (racemic) hydrobromide, trans 1,2,3,4,5,6-hexahydro-3-(3-methyl-2-butenyl)-6,11-dimethyl-8-hydroxy-2,6-methano-3-benzazocine]
- solubility [4, 6]: 10000 µg/mL
- solubility [4, 7]: < 2500 µg/mL

Compound: CC(C)=CCN1CC[C@]2(C)c3cc(O)ccc3C[C@H]1C2C (relative stereo) [4D (dextro), cis 1,2,3,4,5,6-hexahydro-3-(3-methyl-2-butenyl)-6,11-dimethyl-8-hydroxy-2,6-methano-3-benzazocine]
- dosage of antagonist which reduced the analgesic effect of meperidine by approximately 50 per cent [2]: 18.0 mg/kg
- dosage of antagonist which reduced the analgesic effect of morphine by approximately 50 per cent [3]: 21.0 mg/kg

Compound: CC[C@]12CCN(CC=C(C)C)[C@@H](Cc3ccc(O)cc31)C2C (relative stereo) [7D (dextro trans), trans 1,2,3,4,5,6-hexahydro-3-(3-methyl-2-butenyl)-6-ethyl-11-methyl-8-hydroxy-2,6-methano-3-benzazocine]
- analgesic activity in D'Amour-Smith test ([1]; at 30 mg./kg.): inactive
- toxicity in D'Amour-Smith test ([1]; at 60 mg./kg.): toxic
- maximum degree of antagonism ([2]; at 1.25 mg./kg.): 30%

Compound: C=CCN1CC[C@@]2(CC)c3cc(O)ccc3C[C@@H]1[C@@H]2C (relative stereo) [Example 1A, racemic cis 1,2,3,4,5,6-hexahydro-3-allyl-6-ethyl-11-methyl-8-hydroxy-2,6-methano-3-benzazocine]
- ED50 [2]: 0.049 mg/kg
- ED50 [3]: 0.044 mg/kg
- dose approximately equivalent to 10 mg. of morphine sulfate as an analgesic [5]: ~5 mg
- analgesia in human subjects ([5]; 5 mg./kg. and 10 mg./kg.): effective and satisfactory analgesia

— patent publication US4105659A, “1,2,3,4,5,6-Hexahydro-2,6-methano-3-benzazocines” (Sterling Drug Inc., priority 1964, dated 1978)
